Numbering of substitutions follows the chain as printed. Read-outs that look alike come from different tables or passages of the source.
Experiments:
[1] = target: T1, purified wild type MGL (wt-MGLL 6H-11-313) (Homo sapiens, UniProt Q99685); experiment: MGL Enzyme Activity Assay (wild type MGL, 4MU-B substrate); assay type: biochemical; details: wild type MGL 5 nM, 4MU-B 10 μM, 37° C.; read-out: MGL wild type inh IC50
T1 construct: wt-MGLL 6H-11-313; 6H (hexahistidine) (N)
T1 sequence (Q99685 1-303): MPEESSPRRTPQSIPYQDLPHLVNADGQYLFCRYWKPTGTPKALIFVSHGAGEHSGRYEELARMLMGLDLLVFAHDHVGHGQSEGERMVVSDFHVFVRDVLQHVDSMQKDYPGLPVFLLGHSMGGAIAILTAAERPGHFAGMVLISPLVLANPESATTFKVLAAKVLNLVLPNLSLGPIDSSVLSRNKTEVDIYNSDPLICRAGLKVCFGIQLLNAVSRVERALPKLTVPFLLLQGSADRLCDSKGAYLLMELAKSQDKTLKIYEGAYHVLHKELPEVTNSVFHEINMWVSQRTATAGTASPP
Procedure: All rate-based assays were performed in black 384-well polypropylene PCR microplates (Abgene) in a total volume of 30 μL. Substrate 4-methylumbelliferyl butyrate (4MU-B; Sigma) and either purified mutant MGL (mut-MGLL 11-313 L179S L186S) or purified wild type MGL (wt-MGLL 6H-11-313) were diluted separately into 20 mM PIPES buffer (pH=7.0), containing 150 mM NaCl and 0.001% Tween 20. Compounds of Formula (Ia) and (Ib) were pre-dispensed (50 nL) into the assay plate using a Cartesian Hummingbird prior to adding 4MU-B (25 μL of 1.2× solution to a final concentration of 10 μM) followed by enzyme (5 μL of a 6× solution to a final concentration of 5 nM) to initiate the reaction. Final compound concentrations ranged from 17 to 0.0003 μM. The fluorescence change due to 4MU-B cleavage was monitored with excitation and emission wavelengths of 335 and 440 nm, respectively, and a bandwidth of 10 nm (Safire^2, Tecan) at 37° C. for 5 min.
The IC50 values for compounds of Formula (Ia) or (Ib) were determined using Excel from a fit of the equation to the concentration-response plot of the fractional activity as a function of inhibitor concentration.

[2] = target: T2, mutant MGL (Homo sapiens, UniProt Q99685, L169S/L176S); experiment: MGL ThermoFluor Assay - Mutant; assay type: binding
T2 construct: mut-MGLL 11-313 L179S L186S
T2 sequence (Q99685 1-303 L169S/L176S): T1 sequence (Q99685 1-303) with L169S, L176S
Procedure: The ThermoFluor (TF) assay is a 384-well plate-based binding assay that measures thermal stability of proteins^1,2. The experiments were carried out using instruments available from Johnson & Johnson Pharmaceutical Research & Development, LLC. TF dye used in all experiments was 1,8-ANS (Invitrogen: A-47). Final TF assay conditions used for MGL studies were 0.07 mg/ml of mutant MGL, 100 μM ANS, 200 mM NaCl, 0.001% Tween-20 in 50 mM PIPES (pH=7.0).
Screening compound plates contained 100% DMSO compound solutions at a single concentration. For follow-up concentration-response studies, compounds were arranged in a pre-dispensed plate (Greiner Bio-one: 781280), wherein compounds were serially diluted in 100% DMSO across 11 columns within a series. Columns 12 and 24 were used as DMSO reference and contained no compound. For both single and multiple compound concentration-repsonse experiments, the compound aliquots (46 nL) were robotically predispensed directly into 384-well black assay plates (Abgene: TF-0384/k) using the Hummingbird liquid handler. Following compound dispension, protein and dye solutions were added to achieve the final assay volume of 3 μL. The assay solutions were overlayed with 1 μL of silicone oil (Fluka, type DC 200: 85411) to prevent evaporation.
Bar-coded assay plates were robotically loaded onto a thermostatically controlled PCR-type thermal block and then heated from 40 to 90° C. degrees at a ramp-rate of 1° C./min for all experiments. Fluorescence was measured by continuous illumination with UV light (Hamamatsu LC6), supplied via fiber optics and filtered through a band-pass filter (380-400 nm; >6 OD cutoff). Fluorescence emission of the entire 384-well plate was detected by measuring light intensity using a CCD camera (Sensys, Roper Scientific) filtered to detect 500±25 nm, resulting in simultaneous and independent readings of all 384 wells. A single image with 20-sec exposure time was collected at each temperature, and the sum of the pixel intensity in a given area of the assay plate was recorded vs temperature and fit to standard equations to yield the Tm^1. • 1. Pantoliano, M. W., Petrella, E. C., Kwasnoski, J. D., Lobanov, V. S., Myslik, J., Graf, E., Carver, T., Asel, E., Springer, B. A., Lane, P., and Salemme, F. R. (2001) J Biomol Screen 6, 429-40. • 2. Matulis, D., Kranz, J. K., Salemme, F. R., and Todd, M. J. (2005) Biochemistry 44, 5258-66.
The Kd values for compounds of Formula (Ia) and (Ib) were determined from a fit of the equation to the concentration-response plot of the fractional activity as a function of Tm. For some experiments, quantitative NMR spectroscopy (qNMR) was used to measure concentration of the initial 100% DMSO compound solutions and, using the same fitting method, qKd values were determined.

[3] = mutant MGL, compound concentration measured by qNMR, read-out: MGL mutant ThermoFluor qKd (using qNMR conc.)
[4] = mutant MGL 0.07 mg/ml, 1,8-ANS dye, read-out: MGL mutant ThermoFluor Kd

SMILES	IC50 [1]	Kd [2, 3]	Kd [2, 4]
O=C(c1sc2cc(C(F)(F)F)ccc2c1Cl)N1CC(N2CCC(=O)N(c3ncccn3)CC2)C1 [Cpd 17, 1-(1-{[3-Chloro-6-(trifluoromethyl)-1-benzothiophen-2-yl]carbonyl}azetidin-3-yl)-4-pyrimidin-2-yl-1,4-diazepan-5-one]	55.4 nM	52.5 nM	
O=C(c1sc2cc(C(F)(F)F)ccc2c1Cl)N1CC(N2CCN(c3ccccc3)C(=O)C2)C1 [Cpd 14, 4-(1-{[3-Chloro-6-(trifluoromethyl)-1-benzothiophen-2-yl]carbonyl}azetidin-3-yl)-1-phenylpiperazin-2-one]	225 nM		495 nM
O=C(c1ccc2nc(-c3ccccc3)oc2c1)N1CC(N2CCC(=O)N(c3nccs3)CC2)C1 [Cpd 22, 1-{1-[(2-Phenyl-1,3-benzoxazol-6-yl)carbonyl]azetidin-3-yl}-4-(1,3-thiazol-2-yl)-1,4-diazepan-5-one]	< 5 nM	2.5 nM	
O=C(c1ccc2c(ccn2-c2ccc(F)cc2)c1)N1CC(N2CCC(=O)N(c3ncccn3)CC2)C1 [Cpd 20, 1-(1-{[1-(4-Fluorophenyl)-1H-indol-5-yl]carbonyl}azetidin-3-yl)-4-pyrimidin-2-yl-1,4-diazepan-5-one]	248 nM	282 nM	
O=C(c1ccc(-c2ccccc2)cc1)N1CC(N2CCN(c3nccs3)C(=O)C2)C1 [Cpd 18, 4-[1-(Biphenyl-4-ylcarbonyl)azetidin-3-yl]-1-(1,3-thiazol-2-yl)piperazin-2-one]	1660 nM	1370 nM	
O=C(c1sc2cc(C(F)(F)F)ccc2c1Cl)N1CC(N2CCC(=O)N(c3nccs3)CC2)C1 [Cpd 19, 1-(1-{[3-Chloro-6-(trifluoromethyl)-1-benzothiophen-2-yl]carbonyl}azetidin-3-yl)-4-(1,3-thiazol-2-yl)-1,4-diazepan-5-one]	< 5 nM	0.8 nM	
O=C(c1ccc2c(ccn2-c2ccc(C(F)(F)F)cc2)c1)N1CC(N2CCN(c3ccccc3)C(=O)C2)C1 [Cpd 13, 1-Phenyl-4-[1-({1-[4-(trifluoromethyl)phenyl]-1H-indol-5-yl}carbonyl)azetidin-3-yl]piperazin-2-one]	908 nM		1350 nM
O=C(c1ccc2c(ccn2-c2ccc(F)cc2)c1)N1CC(N2CCC(=O)N(c3nccs3)CC2)C1 [Cpd 21, 1-(1-{[1-(4-Fluorophenyl)-1H-indol-5-yl]carbonyl}azetidin-3-yl)-4-(1,3-thiazol-2-yl)-1,4-diazepan-5-one]	< 5 nM	1 nM	
O=C(c1ccc(-c2ccccc2)cc1)N1CC(N2CCN(c3ncccn3)C(=O)C2)C1 [Cpd 9, 4-[1-(Biphenyl-4-ylcarbonyl)azetidin-3-yl]-1-pyrimidin-2-ylpiperazin-2-one]	7850 nM	5660 nM	
O=C(c1cc2ccc(C(F)(F)F)cc2s1)N1CC(N2CCN(c3ncccn3)CC2=O)C1 [Cpd 23, 4-Pyrimidin-2-yl-1-(1-{[6-(trifluoromethyl)-1-benzothiophen-2-yl]carbonyl}azetidin-3-yl)piperazin-2-one]	568 nM		714 nM
O=C(c1ccc2nc(-c3ccccc3)sc2c1)N1CC(N2CCN(c3nccs3)C(=O)C2)C1 [Cpd 12, 4-{1-[(2-Phenyl-1,3-benzothiazol-6-yl)carbonyl]azetidin-3-yl}-1-(1,3-thiazol-2-yl)piperazin-2-one]	98.6 nM		994 nM
O=C(c1ccc2nc(-c3ccccc3)sc2c1)N1CC(N2CCN(c3ncccn3)C(=O)C2)C1 [Cpd 10, 4-{1-[(2-Phenyl-1,3-benzothiazol-6-yl)carbonyl]azetidin-3-yl}-1-pyrimidin-2-ylpiperazin-2-one]	3640 nM	10600 nM	
O=C(c1sc2cc(C(F)(F)F)ccc2c1Cl)N1CC(N2CCN(c3ncccn3)C(=O)C2)C1 [Cpd 8, 4-(1-{[3-Chloro-6-(trifluoromethyl)-1-benzothiophen-2-yl]carbonyl}azetidin-3-yl)-1-pyrimidin-2-ylpiperazin-2-one]	124 nM	165 nM	
O=C(c1ccc2c(ccn2-c2ccc(F)cc2)c1)N1CC(N2CCN(c3ncccn3)C(=O)C2)C1 [Cpd 4, 4-(1-{[1-(4-Fluorophenyl)-1H-indol-5-yl]carbonyl}azetidin-3-yl)-1-pyrimidin-2-ylpiperazin-2-one]	134 nM	943 nM	
O=C(c1ccc2nc(-c3ccccc3)oc2c1)N1CC(N2CCN(c3nccs3)C(=O)C2)C1 [Cpd 16, 4-{1-[(2-Phenyl-1,3-benzoxazol-6-yl)carbonyl]azetidin-3-yl}-1-(1,3-thiazol-2-yl)piperazin-2-one]	67.7 nM	1380 nM	
O=C(c1ccc2c(ccn2-c2ccc(F)c(F)c2)c1)N1CC(N2CCN(c3ccccc3)C(=O)C2)C1 [Cpd 15, 4-(1-{[1-(3,4-Difluorophenyl)-1H-indol-5-yl]carbonyl}azetidin-3-yl)-1-phenylpiperazin-2-one]	304 nM		1970 nM
O=C(c1sc2cc(C(F)(F)F)ccc2c1Cl)N1CC(N2CCN(c3nccs3)C(=O)C2)C1 [Cpd 11, 4-(1-{[3-Chloro-6-(trifluoromethyl)-1-benzothiophen-2-yl]carbonyl}azetidin-3-yl)-1-(1,3-thiazol-2-yl)piperazin-2-one]	< 5 nM		64.3 nM
